# Reference: publication PMC9597602, “Metal Complexes as Antifungals? From a Crowd-Sourced Compound Library to the First In Vivo Experiments” (JACS Au, 2022)
# Where two headings read alike, the source gives them in different places.
# How the values were obtained:
# [1] = tested on: Pseudomonas aeruginosa ATCC 27853 QC control strain; assay: CO-ADD antibacterial MIC assay; format: cell-based; settings: initial CO-ADD dose-response screening; ≥80% growth inhibition
# Procedure: (§1) For the all the bacterial assays, each bacterial strain was cultured in cation-adjusted Mueller Hinton broth (CAMHB; Bacto Laboratories 212322) at 37 °C overnight. A sample of each culture was then diluted 40-fold in fresh CAMHB and incubated at 37 °C for 1.5–3 h. The resultant mid-log phase cultures were diluted with CAMHB (CFU/mL measured by OD600) and then added to each well of the compound-containing plates (384-well non-binding surface (NBS) plates; Corning CLS3640), giving a cell density of 5 × 10^5 CFU/mL and a total volume of 50 μL. Plates were covered and incubated at 37 °C for 18 h without shaking. Inhibition of bacterial growth was determined by measuring the absorbance at 600 nm (OD600) using media only as negative control and bacteria without inhibitors as positive control. MIC values were determined as the lowest concentration at which the growth was inhibited by ≥80% (equivalent to no visible growth by the eye). Colistin sulfate (Sigma C4461) and vancomycin HCl (Sigma 861987) were used as internal controls on each plate for Gram-negative and Gram-positive bacteria, respectively. All compounds were tested as two technical replicates in two independent biological assays, n = 4 final data.
# [2] = tested on: Acinetobacter baumannii ATCC 19606 type strain; assay: CO-ADD antibacterial MIC assay; format: cell-based; settings: initial CO-ADD dose-response screening; ≥80% growth inhibition
# Procedure: as §1
# [3] = tested on: methicillin-resistant Staphylococcus aureus ATCC 43300; assay: CO-ADD antibacterial MIC assay; format: cell-based; settings: initial CO-ADD dose-response screening; ≥80% growth inhibition
# Procedure: as §1
# [4] = tested on: Escherichia coli ATCC 25922 FDA control strain; assay: CO-ADD antibacterial MIC assay; format: cell-based; settings: initial CO-ADD dose-response screening; ≥80% growth inhibition
# Procedure: as §1
# [5] = tested on: Candida glabrata ATCC 90030 NCCLS 84; assay: Antifungal MIC assay, extended panel; format: cell-based; settings: extended panel; 50% inhibition, MIC score 2
# [6] = tested on: Candida tropicalis ATCC 750; assay: Antifungal MIC assay, extended panel; format: cell-based; settings: extended panel; 50% inhibition, MIC score 2
# [7] = tested on: Cryptococcus neoformans H99 ATCC 208821 type strain; assay: Antifungal MIC assay; format: cell-based; settings: for MIC50 Cryptococcus neoformans ATCC 208821: 50% inhibition, MIC score 2; for MIC Cn: initial CO-ADD dose-response screening, ≥80% growth inhibition
# Summary of the method: (§2)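 Yeasts grown 3 days on YPD agar at 30 °C; suspension diluted in YNB medium to a final 2.5 × 10^3 CFU/mL and exposed to compound at 35 °C for 36 h without shaking. MIC taken as lowest concentration giving ≥80% growth inhibition (CLSI M27 score 0–1).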
# [8] = tested on: Candida glabrata ATCC 90030 NCCLS 84; assay: Antifungal MIC assay, extended panel; format: cell-based; settings: extended panel, second batch; ≥80 or ≥50% inhibition
# Procedure: (§3) For the fungal assays, both fungi (yeast) strains were cultured for 3 days on Yeast Extract-Peptone Dextrose (YPD; Becton Dickinson 242720) agar at 30 °C. A yeast suspension of 1 × 10^6 to 5 × 10^6 CFU/mL (as determined by OD530) was prepared from five colonies from the agar plates, subsequently diluted with Yeast Nitrogen Base media (YNB; Becton Dickinson 233520), and added to each well of the compound containing plates (384-well plates, NBS; Corning CLS3640), giving a final cell density of 2.5 × 10^3 CFU/mL and a total volume of 50 μL. Plates were covered and incubated at 35 °C for 36 h without shaking. […] MIC values were recorded as the lowest concentration at which the growth was inhibited by ≥80%, equivalent to ″optically clear-to-slightly hazy″ or MIC score of 0–1 as per CLSI guidelines M27 Reference Method for Broth Dilution Antifungal Susceptibility Testing of Yeasts. […] Fluconazole (Sigma F8929) was used as internal control on each plate for all strains. All compounds were tested as two technical replicates in two to four independent biological assays, n = 4–8 final data.
# [9] = tested on: Cryptococcus deuterogattii CBS7750 VGII; Serotype B; assay: Antifungal MIC assay, extended panel; format: cell-based; settings: extended panel, second batch; ≥80 or ≥50% inhibition
# Procedure: as §3
# [10] = tested on: Candida tropicalis ATCC 750; assay: Antifungal MIC assay, extended panel; format: cell-based; settings: extended panel, second batch; ≥80 or ≥50% inhibition
# Procedure: as §3
# [11] = tested on: Cryptococcus deuterogattii ATCC 32609 VGII; assay: Antifungal MIC assay, extended panel; format: cell-based; settings: extended panel, second batch; ≥80 or ≥50% inhibition
# Procedure: as §3
# [12] = tested on: Candida auris CBS12373 KCTC 17810; assay: Antifungal MIC assay, extended panel; format: cell-based; settings: extended panel; for MIC50 Candida auris CBS12373: 50% inhibition, MIC score 2
# Summary of the method: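 Yeast was grown for 3 days at 30 °C on YPD agar. Five colonies were suspended to 1 × 10^6 to 5 × 10^6 CFU/mL, checked by OD530, diluted in YNB medium, and dispensed onto compound-loaded 384-well NBS plates at 2.5 × 10^3 CFU/mL in 50 μL. Plates were covered and incubated without shaking at 35 °C for 36 h to determine MIC.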
# [13] = tested on: Candida auris CBS10913 JCM 15448; assay: Antifungal MIC assay, extended panel; format: cell-based; settings: extended panel; for MIC Candida auris CBS10913: second batch, ≥80 or ≥50% inhibition; for MIC50 Candida auris CBS10913: 50% inhibition, MIC score 2
# Summary of the method: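 Yeast strains were grown on YPD agar at 30 °C for 3 days. Five colonies were suspended to 1 × 10^6 to 5 × 10^6 CFU/mL (by OD530), diluted in YNB medium, and dispensed into compound-containing 384-well NBS plates to 2.5 × 10^3 CFU/mL in 50 μL. Covered plates were held at 35 °C for 36 h without shaking, and MIC was determined by broth dilution.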
# [14] = tested on: human red blood cells; format: cell-based
# Procedure: Human whole blood (Australian Red Cross) was washed three times with 3 vol of 0.9% NaCl and resuspended in a concentration of 0.5 × 10^8 cells/mL, determined by a manual cell count in a Neubauer hemocytometer. […] After incubation, the plates were centrifuged at 1000g for 10 min to pellet cells and debris; 25 μL of the supernatant was then transferred to reading plates (384-well, polystyrene plated (PS), Corning CLS3680), with hemolysis determined by measuring the supernatant absorbance at […] (OD405) using cells without inhibitors as negative control and cells with 1% Triton X-100 (Sigma T8787) as positive control. […] Melittin (Sigma M2272) was used as internal control on each plate.
# [15] = tested on: Cryptococcus deuterogattii ATCC 32609 VGII; assay: Antifungal MIC assay, extended panel; format: cell-based; settings: extended panel; 50% inhibition, MIC score 2
# [16] = tested on: Candida albicans ATCC 90028 NCCLS11; assay: Antifungal MIC assay; format: cell-based; settings: for MIC Candida albicans ATCC 90028 / MIC50 Candida albicans ATCC 90028: extended panel; for MIC Candida albicans ATCC 90028: second batch, ≥80 or ≥50% inhibition; for MIC50 Candida albicans ATCC 90028: 50% inhibition, MIC score 2; for MIC Ca: initial CO-ADD dose-response screening, ≥80% growth inhibition
# Summary of the method: as §2
# [17] = tested on: HEK-293 human embryonic kidney cells ATCC CRL-1573; settings: for HEK CC50: initial CO-ADD screening, 20 h
# Procedure: The cells were incubated together with the compounds for 20 h at 37 °C in 5% CO2. […] Tamoxifen (Sigma T5648) was used as internal control on each plate.
# [18] = tested on: Cryptococcus deuterogattii CBS7750 VGII; Serotype B; assay: Antifungal MIC assay, extended panel; format: cell-based; settings: extended panel; 50% inhibition, MIC score 2
# [19] = initial CO-ADD screening, 1 h, 10% hemolysis
# [20] = ranges obtained upon retesting, new batch
compound,measurement,setting,value
Cc1c(C)c(-c2ccc(-c3ccccc3)cc2)[c-](C)c1C.Cc1ccccc1NC1=[NH+][Ir]([Cl])[NH]C(NS(=O)(=O)c2ccc([N+](=O)[O-])cc2)=N1 [Ir2],MIC Pa,[1],>32 µg/mL
same,MIC Ab,[2],>32 µg/mL
same,MIC MRSA (Sa),[3],1 µg/mL
same,MIC Ec,[4],>32 µg/mL
same,MIC50 Candida glabrata ATCC 90030,[5],0.098 to 0.195 µM
same,MIC50 Candida tropicalis ATCC 750,[6],0.098 to 0.195 µM
same,MIC Cryptococcus neoformans ATCC 208821,"[7]; extended panel, second batch, ≥80 or ≥50% inhibition",0.024 to 0.049 µM
same,MIC50 Cryptococcus neoformans ATCC 208821,[7]; extended panel,0.024 to 0.098 µM
same,MIC Cn,[7],2 µg/mL
same,MIC,[8],0.098 µM
same,MIC,[9],0.024 µM
same,MIC Candida tropicalis ATCC 750,[10],0.098 to 0.195 µM
same,MIC Cryptococcus deuterogattii ATCC 32609,[11],0.098 to 0.195 µM
same,MIC,"[12]; second batch, ≥80 or ≥50% inhibition, read-out: MIC* Candida auris CBS12373",0.024 µM
same,MIC50 Candida auris CBS12373,[12],0.024 µM
same,MIC Candida auris CBS10913,[13],0.049 to 0.098 µM
same,MIC50 Candida auris CBS10913,[13],0.049 to 0.098 µM
same,RBC HC10,[14]; [19],>32 µg/mL
same,RBC HC10,[14]; [20],2 to 76 µM
same,MIC50 Cryptococcus deuterogattii ATCC 32609,[15],0.098 to 0.195 µM
same,MIC Candida albicans ATCC 90028,[16],0.049 to 0.098 µM
same,MIC50 Candida albicans ATCC 90028,[16],0.049 to 0.098 µM
same,MIC Ca,[16],2 µg/mL
same,HEK CC50,[17],>32 µg/mL
same,MIC50 Cryptococcus deuterogattii CBS7750,[18],0.012 to 0.024 µM
Cc1c(C)c(-c2ccc(-c3ccccc3)cc2)[c-](C)c1C.Cc1ccccc1NC1=[NH+][Ir]([Cl])[NH]C(NS(=O)(=O)c2cccc3c(N(C)C)cccc23)=N1 [Ir3],MIC Pa,[1],>32 µg/mL
same,MIC Ab,[2],>32 µg/mL
same,MIC MRSA (Sa),[3],0.5 µg/mL
same,MIC Ec,[4],>32 µg/mL
same,MIC50 Candida glabrata ATCC 90030,[5],0.098 µM
same,MIC50 Candida tropicalis ATCC 750,[6],0.098 µM
same,MIC,"[7]; extended panel, second batch, ≥80 or ≥50% inhibition, read-out: MIC* Cryptococcus neoformans ATCC 208821",0.024 µM
same,MIC50 Cryptococcus neoformans ATCC 208821,[7]; extended panel,0.024 µM
same,MIC Cn,[7],1 µg/mL
same,MIC,[8],0.098 µM
same,MIC Cryptococcus deuterogattii CBS7750,[9],0.024 to 0.049 µM
same,MIC,[10],0.098 µM
same,MIC Cryptococcus deuterogattii ATCC 32609,[11],0.049 to 0.2 µM
same,MIC50 Candida auris CBS12373,[12],0.024 to 0.049 µM
same,MIC Candida auris CBS10913,[13],0.024 to 0.098 µM
same,MIC50 Candida auris CBS10913,[13],0.098 µM
same,RBC HC10,[14]; [19],>32 µg/mL
same,RBC HC10,[14]; [20],3 to 41 µM
same,MIC50 Cryptococcus deuterogattii ATCC 32609,[15],0.049 to 0.098 µM
same,MIC Candida albicans ATCC 90028,[16],0.024 to 0.098 µM
same,MIC50 Candida albicans ATCC 90028,[16],0.049 µM
same,MIC Ca,[16],2 µg/mL
same,HEK CC50,[17],>32 µg/mL
same,CC50,"[17]; read-out: HEK293 CC50, ranges obtained upon retesting, new batch",54 to 76 µM
same,MIC50 Cryptococcus deuterogattii CBS7750,[18],0.024 µM
